Results on 40 compounds are retold here after patent US7015236B2, “N-heteroarylnicotinamide derivatives” (Sankyo Agro Company, Limited, priority 2001, dated 2006).

Assay [1] relates to green peach aphid (Myzus persicae). Nature of the assay: Insecticidal test for green peach aphid (10 ppm and 3 ppm), Test Example 2. To be noted: same manner as Test Example 1. The format is in vivo. The method, then:
(§1) Water (30 ml) was put into a beaker, and a leaf of Komatsuna (Brassica var. rapa) was placed within the beaker such that the stem was immersed in water. On the leaf of Komatsuna, five green peach aphids were released and allowed to fertilize. Two days after the releasing, imagoes were removed and the number of larvae was counted.
(§2) A surfactant Newcol NE-710F (trademark, produced by Nippon Nyukazai Co., Ltd., 2%) was dissolved in aqueous acetone (95% aqueous solution, 98%) to prepare solution 1. Next, a dispersant Gousenol GLO5-S (trademark, produced by Nippon Nyukazai Co., Ltd., 0.2% aqueous solution, 0.2%) was dissolved in water (99.8%) to prepare solution 2.
(§3) To each of the compounds (8 mg) of the present invention, the above solution 1 (0.4 ml), the above solution 2 (0.4 ml) and water (8 ml) were added. Further, the compounds of the present invention were each diluted with water so that the concentration of each compound was 100 ppm {as a spreading agent, Gramin S (trademark, produced by Sankyo Co., Ltd.) was added so as to have a concentration of 0.01%}.
(§4) The above chemical liquid (8 ml) was sprayed on the leaf of Komatsuna by use of a rotary spraying tower. The leaf of Komatsuna was put back in the beaker. Then, the beaker was placed in a thermostatic chamber of 25° C. for 16 hours in the light and for 8 hours in the dark. 5 Days after the spraying, the number of dead insects was counted to calculate the mortality (%).
Insecticidal Test for Green Peach Aphid (Myzus persicae) (10 ppm and 3 ppm)
The test was carried out in the same manner as in Test Example 1 except for setting the dilution concentration to 10 ppm and 3 ppm. Incidentally, Comparative Compound a and Comparative Compound b (Compound No. 6) listed in Table 1 of Japanese Provisional Patent Publication No. Hei 10-195072 were used as a comparison. [drawing 25]

Assay [2] shares this test system. As to the kind of experiment: Insecticidal test for green peach aphid (100 ppm), Test Example 1. The following applies: 120 h, 100 ppm spray on Komatsuna leaf, larvae, counted 5 days after spraying, 25° C., read-out: mortality (%). The format is in vivo. The method, then: Insecticidal test for green peach aphid (Myzus persicae) (100 ppm)
as §1, §2, §3, §4

By mortality is commonly meant the share of the test organisms that died. `Cc1cnc(NC(=O)c2cnccc2C(F)(F)F)s1` [Comparative Compound a, reference compound] showed a mortality at 3 ppm in assay [1] (Chemical concentration of spray 3 ppm) of 0%. The compound further returned a mortality at 10 ppm in assay [1] (Chemical concentration of spray 10 ppm) of 6%.

As to `CCOC(OCC)c1cc(NC(=O)c2cnccc2C(F)(F)F)on1` [Example 26, N-(3-Diethoxymethyl-5-isoxazolyl)-4-(trifluoromethyl)nicotinamide], the mortality at 100 ppm in assay [2] is at least 95%.

Regarding `CC(=O)N(C(=O)c1cnccc1C(F)(F)F)c1cc(C)no1` [Example 27, N-Acetyl-N-(3-methyl-5-isoxazolyl)-4-(trifluoromethyl)nicotinamide], the mortality at 100 ppm in assay [2] was at least 95%.

`CON=Cc1cc(NC(=O)c2cnccc2C(F)(F)F)on1` [Example 28, N-(3-Methoxyiminomethyl-5-isoxazolyl)-4-(trifluoromethyl)nicotinamide]: in assay [2], the mortality at 100 ppm is at least 95%.

For the compound `CCOC(=O)c1cc(NC(=O)c2cnccc2C(F)(F)F)on1` [Example 29, N-(3-Ethoxycarbonyl-5-isoxazolyl)-4-(trifluoromethyl)nicotinamide], the mortality at 100 ppm in assay [2] is at least 95%.

Take `O=C(c1cnccc1C(F)(F)F)N(C(=O)c1cnccc1C(F)(F)F)c1ccno1` [Example 30, 5-[N,N-Bis(4-trifluoromethylnicotinoyl)]aminoisoxazole]: the mortality at 100 ppm in assay [2] was at least 95%.

In the case of `Cc1noc(NC(=O)c2cnccc2C(F)(F)F)c1C` [Example 33, N-(3,4-Dimethyl-5-isoxazolyl)-4-(trifluoromethyl)nicotinamide], the mortality at 100 ppm in assay [2] is at least 95%.

As for `CCc1cnoc1NC(=O)c1cnccc1C(F)(F)F` [Example 34, N-(4-Ethyl-5-isoxazolyl)-4-(trifluoromethyl)nicotinamide], the mortality at 100 ppm in assay [2] is at least 95%.

On to `CCCc1cnoc1NC(=O)c1cnccc1C(F)(F)F` [Example 35, N-(4-Propyl-5-isoxazolyl)-4-(trifluoromethyl)nicotinamide], for which the mortality at 100 ppm in assay [2] was at least 95%.

As for `CC(C)c1cnoc1NC(=O)c1cnccc1C(F)(F)F` [Example 36, N-(4-Isopropyl-5-isoxazolyl)-4-(trifluoromethyl)nicotinamide], the mortality at 100 ppm in assay [2] was at least 95%.

Turning to `O=C(Nc1oncc1C1CC1)c1cnccc1C(F)(F)F` [Example 37, N-(4-Cyclopropyl-5-isoxazolyl)-4-(trifluoromethyl)nicotinamide], the mortality at 100 ppm in assay [2] was at least 95%.

On to `C=CCc1cnoc1NC(=O)c1cnccc1C(F)(F)F` [Example 38, N-(4-Allyl-5-isoxazolyl)-4-(trifluoromethyl)nicotinamide], for which, in assay [2], the mortality at 100 ppm is at least 95%.

As for `CCCCc1cnoc1NC(=O)c1cnccc1C(F)(F)F` [Example 39, N-(4-Butyl-5-isoxazolyl)-4-(trifluoromethyl)nicotinamide], the mortality at 100 ppm in assay [2] is at least 95%.

Take `CC(C)Cc1cnoc1NC(=O)c1cnccc1C(F)(F)F` [Example 40, N-(4-Isobutyl-5-isoxazolyl)-4-(trifluoromethyl)nicotinamide]: the mortality at 100 ppm in assay [2] was at least 95%.

For `O=C(Nc1oncc1C1CCC1)c1cnccc1C(F)(F)F` [Example 41, N-(4-Cyclobutyl-5-isoxazolyl)-4-(trifluoromethyl)nicotinamide], in assay [2], the mortality at 100 ppm was at least 95%.

Regarding `O=C(Nc1oncc1C1CCCC1)c1cnccc1C(F)(F)F` [Example 42, N-(4-Cyclopentyl-5-isoxazolyl)-4-(trifluoromethyl)nicotinamide], the mortality at 100 ppm in assay [2] is at least 95%.

Take `CCCCCCc1cnoc1NC(=O)c1cnccc1C(F)(F)F` [Example 43, N-(4-Hexyl-5-isoxazolyl)-4-(trifluoromethyl)nicotinamide]: the mortality at 100 ppm in assay [2] is at least 95%.

For `CCCCCCc1cnoc1N(C(=O)c1cnccc1C(F)(F)F)C(=O)c1cnccc1C(F)(F)F` [Example 44, 5-[N,N-Bis(4-trifluoromethylnicotinoyl)]amino-4-hexylisoxazole], the mortality at 100 ppm in assay [2] was at least 95%.

For the compound `O=C(Nc1oncc1Cc1ccccc1)c1cnccc1C(F)(F)F` [Example 45, N-(4-Benzyl-5-isoxazolyl)-4-(trifluoromethyl)nicotinamide], in assay [2], the mortality at 100 ppm is at least 95%.

As for `O=C(Nc1oncc1CCc1ccccc1)c1cnccc1C(F)(F)F` [Example 46, N-(4-Phenylethyl-5-isoxazolyl)-4-(trifluoromethyl)nicotinamide], the mortality at 100 ppm in assay [2] is at least 95%.

In the case of `COc1cnoc1NC(=O)c1cnccc1C(F)(F)F` [Example 47, N-(4-Methoxy-5-isoxazolyl)-4-(trifluoromethyl)nicotinamide], in assay [2], the mortality at 100 ppm is at least 95%.

As to `COCc1noc(NC(=O)c2cnccc2C(F)(F)F)c1OC` [Example 48, N-(4-Methoxy-3-methoxymethyl-5-isoxazolyl)-4-(trifluoromethyl)nicotinamide], the mortality at 100 ppm in assay [2] is at least 95%.

On to `CSc1cnoc1NC(=O)c1cnccc1C(F)(F)F` [Example 49, N-(4-Methylthio-5-isoxazolyl)-4-(trifluoromethyl)nicotinamide], for which the mortality at 100 ppm in assay [2] was at least 95%.

Take `Cc1cnsc1N(C(=O)c1cnccc1C(F)(F)F)C(=O)c1cnccc1C(F)(F)F` [Example 50, 5-[N,N-Bis(4-trifluoromethylnicotinoyl)]amino-4-methylthioisoxazole]: in assay [2], the mortality at 100 ppm is at least 95%.

With `O=C(Nc1oncc1Oc1ccccc1)c1cnccc1C(F)(F)F` [Example 51, N-(4-Phenoxy-5-isoxazolyl)-4-(trifluoromethyl)nicotinamide], in assay [2], the mortality at 100 ppm is at least 95%.

As for `O=C(c1cnccc1C(F)(F)F)N(C(=O)c1cnccc1C(F)(F)F)c1oncc1Oc1ccccc1` [Example 52, 5-[N,N-Bis(4-trifluoromethylnicotinoyl)]amino-4-phenoxyisoxazole], in assay [2], the mortality at 100 ppm was at least 95%.

As for `O=C(Nc1oncc1-c1ccccc1)c1cnccc1C(F)(F)F` [Example 53, N-(4-Phenyl-5-isoxazolyl)-4-(trifluoromethyl)nicotinamide], the mortality at 100 ppm in assay [2] is at least 95%.

Consider `Cc1ccc(-c2cnoc2NC(=O)c2cnccc2C(F)(F)F)cc1` [Example 54, N-[4-(4-Methylphenyl)-5-isoxazolyl]-4-(trifluoromethyl)nicotinamide], for which the mortality at 100 ppm in assay [2] is at least 95%.

In the case of `COc1ccc(-c2cnoc2NC(=O)c2cnccc2C(F)(F)F)cc1` [Example 55, N-[4-(4-Methoxyphenyl)-5-isoxazolyl]-4-(trifluoromethyl)nicotinamide], in assay [2], the mortality at 100 ppm is at least 95%.

In the case of `O=C(Nc1oncc1-c1ccc(Cl)cc1)c1cnccc1C(F)(F)F` [Example 56, N-[4-(4-Chlorophenyl)-5-isoxazolyl]-4-(trifluoromethyl)nicotinamide], in assay [2], the mortality at 100 ppm is at least 95%.

Regarding `O=C(Nc1oncc1-c1ccc(C(F)(F)F)cc1)c1cnccc1C(F)(F)F` [Example 57, N-[4-(4-Trifluoromethylphenyl)-5-isoxazolyl]-4-(trifluoromethyl)nicotinamide], the mortality at 100 ppm in assay [2] was at least 95%.

In the case of `O=C(Nc1oncc1-c1ccc(OC(F)(F)F)cc1)c1cnccc1C(F)(F)F` [Example 58, N-[4-(4-Trifluoromethoxyphenyl)-5-isoxazolyl]-4-(trifluoromethyl)nicotinamide], in assay [2], the mortality at 100 ppm was at least 95%.

For the compound `O=C(Nc1oncc1-c1cccnc1)c1cnccc1C(F)(F)F` [Example 59, N-[4-(3-Pyridyl)-5-isoxazolyl]-4-(trifluoromethyl)nicotinamide], the mortality at 100 ppm in assay [2] was at least 95%.

Consider `CON=Cc1noc(NC(=O)c2cnccc2C(F)(F)F)c1Cl` [Example 60, N-(4-Chloro-3-methoxyiminomethyl-5-isoxazolyl)-4-(trifluoromethyl)nicotinamide], for which the mortality at 100 ppm in assay [2] was at least 95%.

Turning to `Cc1noc(NC(=O)c2cnccc2C(F)(F)F)c1-c1ccccc1` [Example 61, N-(3-Methyl-4-phenyl-5-isoxazolyl)-4-(trifluoromethyl)nicotinamide], the mortality at 100 ppm in assay [2] is at least 95%.

Take `O=C(Nc1oncc1C1=CCCCC1)c1cnccc1C(F)(F)F` [Example 62, N-[4-(Cyclohex-1-ene-1-yl)-5-isoxazolyl]-4-(trifluoromethyl)nicotinamide]: the mortality at 100 ppm in assay [2] is at least 95%.

For `COCc1cnoc1NC(=O)c1cnccc1C(F)(F)F` [Example 63, N-(4-Methoxymethyl-5-isoxazolyl)-4-(trifluoromethyl)nicotinamide], in assay [2], the mortality at 100 ppm was at least 95%.

As to `O=C(Nc1oncc1-n1cccn1)c1cnccc1C(F)(F)F` [Example 64, N-[4-(1H-Pyrazol-1-yl)-5-isoxazolyl]-4-(trifluoromethyl)nicotinamide], the mortality at 100 ppm in assay [2] was at least 95%.

Consider `O=C(Nc1oncc1C1CCCCC1)c1cnccc1C(F)(F)F` [Example 65, N-(4-Cyclohexyl-5-isoxazolyl)-4-(trifluoromethyl)nicotinamide], for which the mortality at 100 ppm in assay [2] was at least 95%.

Take `Cc1noc(NC(=O)c2cnccc2C(F)(F)F)c1F` [Example 66, N-(4-Fluoro-3-methyl-5-isoxazolyl)-4-(trifluoromethyl)nicotinamide]: the mortality at 100 ppm in assay [2] was at least 95%.
